# Molecular target: T1, human mAChR M1 (Homo sapiens, UniProt P11229)
# T1 sequence (P11229 1-460): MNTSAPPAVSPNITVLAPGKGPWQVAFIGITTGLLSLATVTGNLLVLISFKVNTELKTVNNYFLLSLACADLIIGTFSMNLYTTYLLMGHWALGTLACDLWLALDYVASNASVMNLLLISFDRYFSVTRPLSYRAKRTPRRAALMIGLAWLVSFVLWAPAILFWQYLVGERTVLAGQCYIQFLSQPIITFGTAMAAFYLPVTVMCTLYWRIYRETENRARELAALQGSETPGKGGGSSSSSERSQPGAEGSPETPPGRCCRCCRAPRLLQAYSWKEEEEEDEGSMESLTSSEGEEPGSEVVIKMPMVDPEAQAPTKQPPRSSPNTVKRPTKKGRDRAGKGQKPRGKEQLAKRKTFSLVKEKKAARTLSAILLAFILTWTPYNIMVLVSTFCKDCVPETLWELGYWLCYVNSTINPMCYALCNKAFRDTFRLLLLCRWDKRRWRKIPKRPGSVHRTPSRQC
# Assay: mAChR M1 cell-based functional assay: calcium mobilization, positive allosteric modulator mode (increase in EC20 acetylcholine response)
# Details: Table 2, human M1; for EC50: read-out: Human M1 EC50; for Emax: read-out: Human M1 Emax (%)
# Summary of the method: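 Calcium-flux assay in CHO-K1 cells stably expressing human M1, loaded with Fluo-4 AM (50 min, 37 °C) and read at 1 Hz. Compound (11-point, 1:3 series) was added at 4 s, EC20 acetylcholine at 144 s and EC80 at 230 s. PAM activity is the concentration-dependent rise in the EC20 response, fitted with a four-parameter logistic.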
SMILES,EC50 [nM],Emax [%]
"O=C(NC1CCCCNC1=O)c1cc(Cc2ccc(C(F)(F)F)nc2)c2sccc2n1 (stereo not shown) [Compound 98, N-(2-oxoazepan-3-yl)-7-[[6-(trifluoromethyl)-3-pyridyl]methyl]thieno[3,2-b]pyridine-5-carboxamide]",6000,66.6
Cc1ccc(Cc2cc(C(=O)N[C@H]3CC[C@@H]3O)nc3c(C)csc23)cn1 [Compound 99],7300,77.7
"Cc1ccc(Cc2cc(C(=O)NC3CCCCC3)nc3c(C)csc23)cn1 [Compound 101, N-cyclohexyl-3-methyl-7-[(6-methyl-3-pyridyl)methyl]thieno[3,2-b]pyridine-5-carboxamide]",4960,75.7
"Cc1ccc(Cc2cc(C(=O)NC3CCOCC3)nc3c(C)csc23)cn1 [Compound 102, 3-methyl-7-[(6-methyl-3-pyridyl)methyl]-N-tetrahydropyran-4-yl-thieno[3,2-b]pyridine-5-carboxamide]",2700,82.5
"CO[C@@H]1CCCC[C@H]1NC(=O)c1cc(Cc2ccc(C)nc2)c2scc(C)c2n1 [Compound 106, N-[(1R,2R)-2-methoxycyclohexyl]-3-methyl-7-[(6-methyl-3-pyridyl)methyl]thieno[3,2-b]pyridine-5-carboxamide]",2200,82.1
"Cc1ccc(Cc2cc(C(=O)NC34CC5CC(CC(O)(C5)C3)C4)nc3c(C)csc23)cn1 [Compound 108, N-(3-hydroxy-1-adamantyl)-3-methyl-7-[(6-methyl-3-pyridyl)methyl]thieno[3,2-b]pyridine-5-carboxamide]",5270,48.4
"Cc1ccc(Cc2cc(C(=O)NC3C4CC5C[C@H]3CC(O)(C5)C4)nc3c(C)csc23)cn1 (stereo partly drawn) [Compound 109, N-[(1S)-5-hydroxy-2-adamantyl]-3-methyl-7-[(6-methyl-3-pyridyl)methyl]thieno[3,2-b]pyridine-5-carboxamide]",3250,54.6
"Cc1ccc(Cc2cc(C(=O)NC3CCCNC3=O)nc3c(C)csc23)cn1 (stereo not shown) [Compound 110, 3-methyl-7-[(6-methyl-3-pyridyl)methyl]-N-(2-oxo-3-piperidyl)thieno[3,2-b]pyridine-5-carboxamide]",5060,71
"Cc1ccc(Cc2cc(C(=O)NC3CCCCNC3=O)nc3c(C)csc23)cn1 (stereo not shown) [Compound 111, 3-methyl-7-[(6-methyl-3-pyridyl)methyl]-N-(2-oxoazepan-3-yl)thieno[3,2-b]pyridine-5-carboxamide]",2400,72.5
"Cc1ccc(Cc2cc(C(=O)NC3CCN(C)CC3)nc3c(C)csc23)cn1 [Compound 112, 3-methyl-N-(1-methyl-4-piperidyl)-7-[(6-methyl-3-pyridyl)methyl]thieno[3,2-b]pyridine-5-carboxamide]",5820,36.7
"CO[C@@H]1CCCC[C@H]1NC(=O)c1cc(Cc2ccc(-n3cccn3)cc2)c2scc(C)c2n1 [Compound 119, N-[(1R,2R)-2-methoxycyclohexyl]-3-methyl-7-[(4-pyrazol-1-ylphenyl)methyl]thieno[3,2-b]pyridine-5-carboxamide]",2280,83.3
"Cc1csc2c(Cc3ccc(-n4cccn4)cc3)cc(C(=O)N[C@@H]3CCCCC[C@H]3O)nc12 [Compound 120, N-[(1R,2R)-2-hydroxycycloheptyl]-3-methyl-7-[(4-pyrazol-1-ylphenyl)methyl]thieno[3,2-b]pyridine-5-carboxamide]",1320,75.3
"Cc1csc2c(Cc3ccc(-n4cccn4)cc3)cc(C(=O)N(C)C3CCOCC3)nc12 [Compound 121, N,3-dimethyl-7-[(4-pyrazol-1-ylphenyl)methyl]-N-tetrahydropyran-4-yl-thieno[3,2-b]pyridine-5-carboxamide]",6760,54.9

# These reach a lower EC50. Values come first.
EC50 [nM],Emax [%],SMILES
654,87.5,Cc1ccc(Cc2cc(C(=O)N[C@@H]3CCC[C@H]3O)nc3c(C)csc23)cn1 [Compound 100]
233,89.3,"Cc1ccc(Cc2cc(C(=O)N[C@@H]3CCCC[C@H]3O)nc3c(C)csc23)cn1 [Compound 103, N-[(1R,2R)-2-hydroxycyclohexyl]-3-methyl-7-[(6-methyl-3-pyridyl)methyl]thieno[3,2-b]pyridine-5-carboxamide]"
164,86.8,Cc1ccc(Cc2cc(C(=O)N[C@@H]3CCOC[C@H]3O)nc3c(C)csc23)cn1 [Compound 104]
825,87.7,Cc1ccc(Cc2cc(C(=O)N[C@@H]3COCC[C@H]3O)nc3c(C)csc23)cn1 [Compound 105]
474,88.5,Cc1ccc(Cc2cc(C(=O)N[C@@H]3CCCCC[C@H]3O)nc3c(C)csc23)cn1 [Compound 107]
985,83.8,"Cc1csc2c(Cc3ccc(-n4cccn4)cc3)cc(C(=O)N[C@H]3CC[C@@H]3O)nc12 [Compound 113, N-[(1S,2S)-2-hydroxycyclobutyl]-3-methyl-7-[(4-pyrazol-1-ylphenyl)methyl]thieno[3,2-b]pyridine-5-carboxamide]"
562,84.5,"Cc1csc2c(Cc3ccc(-n4cccn4)cc3)cc(C(=O)N[C@@H]3CCC[C@H]3O)nc12 [Compound 114, N-[(1R,2R)-2-hydroxycyclopentyl]-3-methyl-7-[(4-pyrazol-1-ylphenyl)methyl]thieno[3,2-b]pyridine-5-carboxamide]"
1050,86.2,"Cc1csc2c(Cc3ccc(-n4cccn4)cc3)cc(C(=O)NC3CCOCC3)nc12 [Compound 115, 3-methyl-7-[(4-pyrazol-1-ylphenyl)methyl]-N-tetrahydropyran-4-yl-thieno[3,2-b]pyridine-5-carboxamide]"
320,78.7,"Cc1csc2c(Cc3ccc(-n4cccn4)cc3)cc(C(=O)N[C@@H]3CCCC[C@H]3O)nc12 [Compound 116, N-[(1R,2R)-2-hydroxycyclohexyl]-3-methyl-7-[(4-pyrazol-1-ylphenyl)methyl]thieno[3,2-b]pyridine-5-carboxamide]"
83.3,76.6,"Cc1csc2c(Cc3ccc(-n4cccn4)cc3)cc(C(=O)N[C@@H]3CCOC[C@H]3O)nc12 [Compound 117, N-[(3S,4R)-3-hydroxytetrahydropyran-4-yl]-3-methyl-7-[(4-pyrazol-1-ylphenyl)methyl]thieno[3,2-b]pyridine-5-carboxamide]"
134,83.7,Cc1csc2c(Cc3ccc(-n4cccn4)cc3)cc(C(=O)N[C@@H]3COCC[C@H]3O)nc12 [Compound 118]
869,80.4,"Cc1csc2c(Cc3ccc(-n4cccn4)cc3)cc(C(=O)NC3CCCNC3=O)nc12 (stereo not shown) [Compound 122, 3-methyl-N-(2-oxo-3-piperidyl)-7-[(4-pyrazol-1-ylphenyl)methyl]thieno[3,2-b]pyridine-5-carboxamide]"
435,28.8,"Cc1csc2c(Cc3ccc(-n4cccn4)cc3)cc(C(=O)NC3CCCCNC3=O)nc12 (stereo not shown) [Compound 123, 3-methyl-N-(2-oxoazepan-3-yl)-7-[(4-pyrazol-1-ylphenyl)methyl]thieno[3,2-b]pyridine-5-carboxamide]"
